# Assay: passive permeability, PAMPA, ADME assay (AID 1508612)
# Settings: pH 7.4, 30.0 min, 50.0 µM
row,Papp,SMILES
1,7.61 ×10⁻⁶ cm/s,O=C(c1ccc(C(=O)N2CCC(N3CCCC3)CC2)c(Nc2ccccc2)c1)N1CCC(N2CCCC2)CC1
2,760 ×10⁻⁶ cm/s,COc1ccc2[nH]c(=O)c(-c3noc(-c4ccccc4)n3)cc2c1
3,247 ×10⁻⁶ cm/s,c1ccc2c(Nc3ccon3)nc(-c3ccncc3)nc2c1
4,289 ×10⁻⁶ cm/s,Cc1nc2sccn2c(=O)c1S(=O)(=O)Nc1ccc(N2CCN(C)CC2)cc1
5,> 1000 ×10⁻⁶ cm/s,Nc1c(S(=O)(=O)c2cccs2)c2nc3ccccc3nc2n1Cc1ccccc1
6,335 ×10⁻⁶ cm/s,CC(C=CC(=O)NO)=C[C@@H](C)C(=O)c1ccc(N(C)C)cc1
7,569 ×10⁻⁶ cm/s,COc1ccc(-n2nc(C3CCCN([S+](=O)([O-])c4cccc(C(F)(F)F)c4)C3)[nH]c2=O)cc1 (centres undefined)
8,> 1000 ×10⁻⁶ cm/s,Cc1ccc(OCCn2c(CCNC(=O)C3CCCCC3)nc3ccccc32)cc1
9,23.9 ×10⁻⁶ cm/s,Cc1ccccc1C(=O)N1CCc2cc(-c3nc(NC(=O)Cc4ccc5c(c4)OCO5)sc3C)ccc21
10,2.4 ×10⁻⁶ cm/s,O=S(=O)(Nc1nccs1)c1ccc(NCc2cccc3cc[nH]c23)cc1
11,322 ×10⁻⁶ cm/s,CCc1cccc(NC(=O)CSc2nc3ccccc3nc2N2CCCCC2)c1
12,7.93 ×10⁻⁶ cm/s,O=[S+]([O-])(Nc1ccc(N2CCNCC2)cc1)c1ccc(NCc2ccc(Br)cc2O)cc1
13,< 1 ×10⁻⁶ cm/s,O=C(Nc1nc(-c2ccccc2)cs1)c1ccncc1NS(=O)(=O)c1ccc(-c2ccccc2)cc1
14,> 1000 ×10⁻⁶ cm/s,Cc1cc(-c2nnc3n2CCCCC3)c(C)n1-c1cccc(C(F)(F)F)c1
15,497 ×10⁻⁶ cm/s,Cc1ccc(S(=O)(=O)Nc2cnccc2C(=O)Nc2nc(C3CCC3)cs2)cc1
16,285 ×10⁻⁶ cm/s,Cc1ccc(-c2cc(C(=O)Nc3ccc(C#N)cc3)c3ccccc3n2)cc1C
17,394 ×10⁻⁶ cm/s,COc1ccc(CCNC(=O)c2cc3c(=O)n4ccccc4nc3n(CCCN3CCOCC3)c2=N)cc1
18,> 1000 ×10⁻⁶ cm/s,Fc1cnc(-c2ccccc2C(F)F)nc1NCc1ccc(-c2cccnc2)cc1
19,> 1000 ×10⁻⁶ cm/s,CC(C)NC(=O)c1nc(-c2ccc(Cl)nc2)c2ccccn12
20,111 ×10⁻⁶ cm/s,O=C(O)c1cccc(-c2noc(-c3ccccc3F)n2)c1
21,540 ×10⁻⁶ cm/s,Cc1c(O)ccc2c1OC(C)(C)CC2
22,> 1000 ×10⁻⁶ cm/s,Cc1cc(C)cc(C(=O)Nc2ccc3c(N4CCCC4)ncnc3c2)c1
23,971 ×10⁻⁶ cm/s,COc1ccc(Cl)cc1C(=O)Nc1ccc(NC(=O)c2ccco2)cc1
24,2.99 ×10⁻⁶ cm/s,Nc1ncnc2c1ncn2[C@H]1O[C@@H](CO)[C@@H](O)[C@H]1N
25,306 ×10⁻⁶ cm/s,CC(=O)c1ccc(N2CCN(S(=O)(=O)c3ccc4c(c3)n(C)c(=O)n4C)CC2)cc1
26,67.7 ×10⁻⁶ cm/s,CCc1oc2ccccc2c1C(=O)c1cc(I)c(O)c(I)c1

row,Papp,SMILES
1,544 ×10⁻⁶ cm/s,NC(=O)C1CCN(c2nc(-c3ccccc3C(F)(F)F)cs2)CC1
2,331 ×10⁻⁶ cm/s,CN(C)c1ccccc1-c1csc(N2CCC(C(N)=O)CC2)n1
3,581 ×10⁻⁶ cm/s,CC(C)(C)C1CCc2c(sc(NC(=O)c3ccncc3)c2C(N)=O)C1 (centres undefined)
4,> 1000 ×10⁻⁶ cm/s,COc1ccc(C(=O)Nc2nc(-c3ccccc3)cs2)c(OC)c1
5,> 1000 ×10⁻⁶ cm/s,O=c1cc(CN2CCCN(c3ccc(C(F)(F)F)cn3)CC2)nc2ccccn12
6,207 ×10⁻⁶ cm/s,Cc1nc2c(-c3ccccc3)cnn2c(N)c1-c1ccccc1
7,924 ×10⁻⁶ cm/s,CCn1c(SCc2ccc(C#N)cc2)nnc1-c1cccc(Cl)c1
8,488 ×10⁻⁶ cm/s,COc1ccc(-n2c(C)cc(-c3nnc4n3CCCCC4)c2C)cc1
9,13.5 ×10⁻⁶ cm/s,Nc1ncc(S(=O)(=O)N2CCN(c3ccccc3)CC2)cn1
10,858 ×10⁻⁶ cm/s,C#C[C@]1(OC(C)=O)CC[C@H]2[C@@H]3CCC4=C/C(=N/O)CC[C@@H]4[C@H]3CC[C@@]21CC
11,139 ×10⁻⁶ cm/s,COc1ccc(-c2nc3ncccc3[nH]2)cc1
12,427 ×10⁻⁶ cm/s,CCCN1C(CC(C)C)=NS(=O)(=O)c2cc(NC(=O)c3ccco3)ccc21
13,798 ×10⁻⁶ cm/s,Cc1ccc(-c2cc(C(=O)Nc3ncco3)c3ccccc3n2)cc1C
14,41.1 ×10⁻⁶ cm/s,O=C1Nc2ccc(C(=O)c3ccco3)cc2/C1=C/c1cc(Cl)c(O)c(Cl)c1
15,> 1000 ×10⁻⁶ cm/s,CCN(CC)S(=O)(=O)c1ccc(N2CCOCC2)c(NC(=O)c2[nH]c(C)c(C(C)=O)c2C)c1
16,> 1000 ×10⁻⁶ cm/s,O=C(Nc1nc(-c2ccccc2)cs1)c1ccncc1NS(=O)(=O)c1ccc2ccccc2c1
17,310 ×10⁻⁶ cm/s,O=C(Nc1ccc2oc(-c3cccnc3)nc2c1)c1ccc(-c2cccc(Cl)c2)o1
18,15.8 ×10⁻⁶ cm/s,NC(=O)COc1cccc(C2CC(=O)Nc3nc(N4CCCCC4)sc32)c1 (centres undefined)
19,> 1000 ×10⁻⁶ cm/s,Cn1c(=O)c2c(-c3ccc(Cl)cc3)n(CCc3ccccc3)cc2n(C)c1=O
20,752 ×10⁻⁶ cm/s,COc1ccc(CCNc2ncnc3onc(C)c23)c(OC)c1
21,> 1000 ×10⁻⁶ cm/s,COc1ccccc1N1CCN(CCN(C(=O)c2ccc(I)cc2)c2ccccn2)CC1
22,860 ×10⁻⁶ cm/s,Cc1cccc(S(=O)(=O)Nc2cnccc2C(=O)Nc2nc(-c3ccccc3)cs2)c1
23,> 1000 ×10⁻⁶ cm/s,O=C(CCCc1ccc2cccnc2n1)NCc1cc(-c2ccc(F)c(C(F)(F)F)c2)no1
24,476 ×10⁻⁶ cm/s,COc1ccc(-n2nc(C3CCCN(C(=O)c4ccccc4F)C3)[nH]c2=O)cc1 (centres undefined)
25,> 1000 ×10⁻⁶ cm/s,Cc1cc(-c2nnc3n2CCCCC3)c(C)n1-c1ccc(C(C)(C)C)cc1
26,936 ×10⁻⁶ cm/s,Cn1nnnc1Sc1ncnc2scc(-c3cc4ccccc4o3)c12

row,SMILES,Papp
1,CCOc1ccc(CCNC(=O)c2cc3cnccc3n2Cc2cccc(C)c2)cc1OCC,184 ×10⁻⁶ cm/s
2,C[C@H]1[C@@H](CCC(=O)Nc2ccc(F)cc2)O[C@@H]2O[C@]3(C)CC[C@@H]4[C@H](C)CC[C@@H]1[C@@]24OO3,> 1000 ×10⁻⁶ cm/s
